Measurements taken from US10479784B2, “Substituted pyrazin-2-amines as inhibitors of ATR kinase” (Vertex Pharmaceuticals Incorporated, priority 2008, dated 2019).

What follows are molecules tested against full-length ATR (Homo sapiens (Human), UniProt Q13535) (assay: ATR Inhibition Assay (radioactive-phosphate incorporation)). Conditions: read-out: ATR Ki.
Type: biochemical
Description: Compounds were screened for their ability to inhibit ATR kinase using a radioactive-phosphate incorporation assay. Assays were carried out in a mixture of 50 mM Tris/HCl (pH 7.5), 10 mM MgCl2 and 1 mM DTT. Final substrate concentrations were […] [γ-33P]ATP (3mCi 33P ATP/mmol ATP, Perkin Elmer) and 800 μM target peptide ([…]).
Assays were carried out at 25° C. in the presence of 5 nM full-length ATR. An assay stock buffer solution was prepared containing all of the reagents listed above, with the exception of ATP and the test compound of interest. […] The plate was pre-incubated for 10 minutes at 25° C. and the reaction initiated by addition of 15 μL [γ-33P]ATP (final concentration 10 μM).
The reaction was stopped after […] by the addition of 30 μL 0.1M phosphoric acid containing 2 mM ATP. A multiscreen phosphocellulose filter 96-well plate (Millipore, Cat no. MAPHN0B50) was pretreated with 100 μL 0.2M phosphoric acid prior to the addition of 45 μL of the stopped assay mixture. […] After drying, 100 μL Optiphase ‘SuperMix’ liquid scintillation cocktail (Perkin Elmer) was added to the well prior to scintillation counting (1450 Microbeta Liquid Scintillation Counter, Wallac).
After removing mean background values for all of the data points, Ki(app) data were calculated from non-linear regression analysis of the initial rate data using the Prism software package (GraphPad Prism version 3.0cx for Macintosh, GraphPad Software, San Diego Calif., USA).

full-length ATR, sequence (Q13535 whole entry): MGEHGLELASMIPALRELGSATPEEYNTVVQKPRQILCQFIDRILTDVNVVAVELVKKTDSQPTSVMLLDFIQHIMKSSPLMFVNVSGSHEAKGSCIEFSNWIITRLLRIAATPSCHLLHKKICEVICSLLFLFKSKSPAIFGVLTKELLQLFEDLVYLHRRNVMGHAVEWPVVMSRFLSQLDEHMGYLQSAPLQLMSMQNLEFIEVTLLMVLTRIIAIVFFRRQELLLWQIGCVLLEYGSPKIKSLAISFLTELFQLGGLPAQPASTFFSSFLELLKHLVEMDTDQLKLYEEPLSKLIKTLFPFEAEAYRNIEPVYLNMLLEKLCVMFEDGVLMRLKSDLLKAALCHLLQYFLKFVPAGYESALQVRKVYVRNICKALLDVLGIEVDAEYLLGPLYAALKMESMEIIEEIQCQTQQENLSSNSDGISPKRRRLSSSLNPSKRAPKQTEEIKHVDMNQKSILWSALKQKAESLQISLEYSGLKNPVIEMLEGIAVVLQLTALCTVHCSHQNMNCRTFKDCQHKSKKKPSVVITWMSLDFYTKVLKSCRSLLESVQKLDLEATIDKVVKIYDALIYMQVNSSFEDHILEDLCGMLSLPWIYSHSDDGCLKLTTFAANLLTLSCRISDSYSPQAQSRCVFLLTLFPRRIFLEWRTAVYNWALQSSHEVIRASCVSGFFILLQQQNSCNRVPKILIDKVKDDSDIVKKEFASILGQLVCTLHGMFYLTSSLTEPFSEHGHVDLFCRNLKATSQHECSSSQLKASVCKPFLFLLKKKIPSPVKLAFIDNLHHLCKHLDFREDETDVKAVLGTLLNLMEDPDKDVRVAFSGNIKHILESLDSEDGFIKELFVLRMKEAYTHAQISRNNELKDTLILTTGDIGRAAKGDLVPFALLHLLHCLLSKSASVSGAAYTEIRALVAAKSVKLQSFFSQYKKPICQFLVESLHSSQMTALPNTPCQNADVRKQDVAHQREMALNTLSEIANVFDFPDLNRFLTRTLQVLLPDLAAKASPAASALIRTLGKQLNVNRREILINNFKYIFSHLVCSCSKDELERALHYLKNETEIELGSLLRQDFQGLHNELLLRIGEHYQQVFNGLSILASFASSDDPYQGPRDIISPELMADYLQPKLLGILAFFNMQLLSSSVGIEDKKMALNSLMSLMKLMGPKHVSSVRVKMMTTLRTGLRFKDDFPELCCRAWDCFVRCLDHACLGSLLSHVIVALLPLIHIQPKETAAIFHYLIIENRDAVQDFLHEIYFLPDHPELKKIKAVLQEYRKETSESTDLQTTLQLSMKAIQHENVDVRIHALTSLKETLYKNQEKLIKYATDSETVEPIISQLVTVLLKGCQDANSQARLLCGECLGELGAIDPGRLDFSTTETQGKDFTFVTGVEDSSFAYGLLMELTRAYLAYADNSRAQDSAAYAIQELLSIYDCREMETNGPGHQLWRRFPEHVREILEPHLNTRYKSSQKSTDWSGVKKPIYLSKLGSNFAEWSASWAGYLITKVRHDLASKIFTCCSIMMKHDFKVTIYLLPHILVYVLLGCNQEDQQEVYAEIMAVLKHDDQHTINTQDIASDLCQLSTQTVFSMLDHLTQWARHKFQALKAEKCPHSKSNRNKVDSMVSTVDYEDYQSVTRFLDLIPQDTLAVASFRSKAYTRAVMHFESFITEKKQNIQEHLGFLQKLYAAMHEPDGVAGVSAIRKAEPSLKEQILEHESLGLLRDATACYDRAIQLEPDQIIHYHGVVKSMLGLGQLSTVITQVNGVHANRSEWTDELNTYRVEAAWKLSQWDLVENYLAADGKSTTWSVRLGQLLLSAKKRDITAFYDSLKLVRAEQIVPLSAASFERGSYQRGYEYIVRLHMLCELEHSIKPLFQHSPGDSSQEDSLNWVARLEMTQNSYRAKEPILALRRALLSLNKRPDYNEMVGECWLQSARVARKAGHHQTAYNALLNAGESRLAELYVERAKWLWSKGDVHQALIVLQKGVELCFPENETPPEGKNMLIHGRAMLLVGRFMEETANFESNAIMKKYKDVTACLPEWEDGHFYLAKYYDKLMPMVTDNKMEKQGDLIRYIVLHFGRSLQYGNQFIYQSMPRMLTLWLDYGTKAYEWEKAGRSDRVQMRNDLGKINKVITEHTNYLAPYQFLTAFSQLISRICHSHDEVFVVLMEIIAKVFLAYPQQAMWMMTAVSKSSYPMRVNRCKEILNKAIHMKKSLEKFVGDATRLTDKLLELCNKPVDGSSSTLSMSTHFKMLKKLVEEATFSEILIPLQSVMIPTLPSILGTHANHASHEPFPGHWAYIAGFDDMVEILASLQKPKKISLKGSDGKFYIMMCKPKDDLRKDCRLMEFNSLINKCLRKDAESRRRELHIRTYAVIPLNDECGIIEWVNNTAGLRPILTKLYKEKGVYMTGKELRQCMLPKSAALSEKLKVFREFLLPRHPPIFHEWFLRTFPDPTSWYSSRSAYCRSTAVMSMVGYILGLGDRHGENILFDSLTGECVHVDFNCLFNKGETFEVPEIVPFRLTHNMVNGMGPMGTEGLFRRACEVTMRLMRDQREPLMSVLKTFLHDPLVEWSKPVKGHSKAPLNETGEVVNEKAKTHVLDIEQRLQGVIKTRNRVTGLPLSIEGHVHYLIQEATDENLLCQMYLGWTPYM

Row | SMILES | Ki
1 | Nc1ncc(-c2cccnc2)nc1C(=O)Nc1ccccc1 [Compound I-85, 3-amino-N-phenyl-6-(pyridin-3-yl)pyrazine-2-carboxamide] | 10 to 100 nM
2 | N#Cc1cccc(NC(=O)c2nc(-c3cccnc3)cnc2N)c1 [Compound I-87, 3-amino-N-(3-cyanophenyl)-6-(pyridin-3-yl)pyrazine-2-carboxamide] | 100 to 5000 nM
3 | Nc1ncc(-c2cccnc2)nc1C(=O)Nc1ccncn1 [Compound I-89, 3-amino-6-(pyridin-3-yl)-N-(pyrimidin-4-yl)pyrazine-2-carboxamide] | 100 to 5000 nM
4 | CN(C)c1cccc(NC(=O)c2nc(-c3cccnc3)cnc2N)c1 [Compound I-90, 3-amino-N-(3-(dimethylamino)phenyl)-6-(pyridin-3-yl)pyrazine-2-carboxamide] | 100 to 5000 nM
5 | Cc1ccccc1NC(=O)c1nc(-c2cccnc2)cnc1N [Compound I-91, 3-amino-6-(pyridin-3-yl)-N-o-tolylpyrazine-2-carboxamide] | 100 to 5000 nM
6 | NC(=O)c1ccc(NC(=O)c2nc(-c3cccnc3)cnc2N)cc1 [Compound I-92, 3-amino-N-(4-carbamoylphenyl)-6-(pyridin-3-yl)pyrazine-2-carboxamide] | 100 to 5000 nM
7 | CC(=O)Nc1ccc(NC(=O)c2nc(-c3cccnc3)cnc2N)cc1 [Compound I-93, 3-amino-N-(4-ethanamidophenyl)-6-(pyridin-3-yl)pyrazine-2-carboxamide] | 100 to 5000 nM
8 | Nc1ncc(-c2cccnc2)nc1C(=O)Nc1ccc(F)cc1 [Compound I-94, 3-amino-N-(4-fluorophenyl)-6-(pyridin-3-yl)pyrazine-2-carboxamide] | 100 to 5000 nM
9 | Nc1ncc(-c2cccnc2)nc1C(=O)Nc1ccccn1 [Compound I-97, 3-amino-N-(pyridin-2-yl)-6-(pyridin-3-yl)pyrazine-2-carboxamide] | 100 to 5000 nM
10 | COc1ccc(NC(C)=O)cc1NC(=O)c1nc(-c2cccnc2)cnc1N [Compound I-100, 3-amino-N-(5-ethanamido-2-methoxyphenyl)-6-(pyridin-3-yl)pyrazine-2-carboxamide] | 100 to 5000 nM
11 | Nc1ncc(-c2cccnc2)nc1C(=O)Nc1cccc(S(N)(=O)=O)c1 [Compound I-101, 3-amino-6-(pyridin-3-yl)-N-(3-sulfamoylphenyl)pyrazine-2-carboxamide] | 10 to 100 nM
12 | Nc1ncc(-c2cccnc2)nc1C(=O)Nc1cccc(F)c1 [Compound I-103, 3-amino-N-(3-fluorophenyl)-6-(pyridin-3-yl)pyrazine-2-carboxamide] | 10 to 100 nM
13 | Nc1ncc(-c2cccnc2)nc1C(=O)Nc1ccc2[nH]ccc2c1 [Compound I-104, 3-amino-N-(1H-indol-5-yl)-6-(pyridin-3-yl)pyrazine-2-carboxamide] | 10 to 100 nM
14 | COc1ccc(OC)c(NC(=O)c2nc(-c3cccnc3)cnc2N)c1 [Compound I-107, 3-amino-N-(2,5-dimethoxyphenyl)-6-(pyridin-3-yl)pyrazine-2-carboxamide] | 10 to 100 nM
15 | COc1ccc(C)cc1NC(=O)c1nc(-c2cccnc2)cnc1N [Compound I-108, 3-amino-N-(2-methoxy-5-methylphenyl)-6-(pyridin-3-yl)pyrazine-2-carboxamide] | ≤ 10 nM
16 | CS(=O)(=O)c1ccc(-c2cnc(N)c(-c3nc4cccc(O)c4[nH]3)n2)cc1 [Compound I-109, 2-(3-amino-6-(4-(methylsulfonyl)phenyl)pyrazin-2-yl)-1H-benzo[d]imidazol-7-ol] | ≤ 10 nM
17 | CS(=O)(=O)c1ccc(-c2cnc(N)c(-c3nc4ccc(C#N)cc4[nH]3)n2)cc1 [Compound I-111, 2-(3-amino-6-(4-(methylsulfonyl)phenyl)pyrazin-2-yl)-1H-benzo[d]imidazole-6-carbonitrile] | 10 to 100 nM
18 | CS(=O)(=O)c1ccc(-c2cnc(N)c(-c3nc4cccnc4[nH]3)n2)cc1 [Compound I-112, 3-(3H-imidazo[4,5-b]pyridin-2-yl)-5-(4-(methylsulfonyl)phenyl) pyrazin-2-amine] | ≤ 10 nM
19 | Nc1ncc(-c2ccccc2)nc1-c1nc2cccc(O)c2[nH]1 [Compound I-113, 2-(3-amino-6-phenylpyrazin-2-yl)-1H-benzo[d]imidazol-7-ol] | 100 to 5000 nM
20 | CS(=O)(=O)c1ccc(-c2cnc(N)c(-c3nc4ccc(Cl)cc4[nH]3)n2)cc1 [Compound I-114, 3-(6-chloro-1H-benzo[d]imidazol-2-yl)-5-(4-(methylsulfonyl)phenyl) pyrazin-2-amine] | ≤ 10 nM
21 | COc1ccc2nc(-c3nc(-c4ccc(S(C)(=O)=O)cc4)cnc3N)[nH]c2c1 [Compound I-115, 3-(6-methoxy-1H-benzo[d]imidazol-2-yl)-5-(4-(methylsulfonyl)phenyl) pyrazin-2-amine] | 10 to 100 nM
22 | COC(=O)c1ccc2nc(-c3nc(-c4ccc(S(C)(=O)=O)cc4)cnc3N)[nH]c2c1 [Compound I-116, methyl 2-(3-amino-6-(4-(methylsulfonyl)phenyl)pyrazin-2-yl)-1H-benzo[d]imidazole-6-carboxylate] | 100 to 5000 nM
23 | Cc1ccc2nc(-c3nc(-c4ccc(S(C)(=O)=O)cc4)cnc3N)[nH]c2c1 [Compound I-117, 3-(6-methyl-1H-benzo[d]imidazol-2-yl)-5-(4-(methylsulfonyl)phenyl) pyrazin-2-amine] | 10 to 100 nM

Further lines, results first:

Row | Ki | SMILES
24 | 10 to 100 nM | COc1cccc(NC(=O)c2nc(-c3cccnc3)cnc2N)c1 [Compound I-86, 3-amino-N-(3-methoxyphenyl)-6-(pyridin-3-yl)pyrazine-2-carboxamide]
25 | 100 to 5000 nM | NC(=O)c1cccc(NC(=O)c2nc(-c3cccnc3)cnc2N)c1 [Compound I-88, 3-amino-N-(3-carbamoylphenyl)-6-(pyridin-3-yl)pyrazine-2-carboxamide]
26 | 100 to 5000 nM | CC(=O)Nc1cccc(NC(=O)c2nc(-c3cccnc3)cnc2N)c1 [Compound I-95, 3-amino-N-(3-ethanamidophenyl)-6-(pyridin-3-yl)pyrazine-2-carboxamide]
27 | 100 to 5000 nM | Nc1ncc(-c2cccnc2)nc1C(=O)Nc1ccccc1F [Compound I-96, 3-amino-N-(2-fluorophenyl)-6-(pyridin-3-yl)pyrazine-2-carboxamide]
28 | 100 to 5000 nM | Nc1ncc(-c2cccnc2)nc1C(=O)Nc1ccncc1 [Compound I-98, 3-amino-6-(pyridin-3-yl)-N-(pyridin-4-yl)pyrazine-2-carboxamide]
29 | 100 to 5000 nM | Nc1ncc(-c2cccnc2)nc1C(=O)Nc1cccc2c1OC(F)(F)O2 [Compound I-99, 3-amino-N-(2,2-difluorobenzo[d][1,3]dioxol-4-yl)-6-(pyridin-3-yl)pyrazine-2-carboxamide]
30 | 10 to 100 nM | Nc1ncc(-c2cccnc2)nc1C(=O)Nc1ccccc1OC(F)(F)F [Compound I-102, 3-amino-6-(pyridin-3-yl)-N-(2-(trifluoromethoxy)phenyl)pyrazine-2-carboxamide]
31 | 10 to 100 nM | Nc1ncc(-c2cccnc2)nc1C(=O)Nc1ccc2cc[nH]c2c1 [Compound I-105, 3-amino-N-(1H-indol-6-yl)-6-(pyridin-3-yl)pyrazine-2-carboxamide]
32 | 10 to 100 nM | COc1ccccc1NC(=O)c1nc(-c2cccnc2)cnc1N [Compound I-106, 3-amino-N-(2-methoxyphenyl)-6-(pyridin-3-yl)pyrazine-2-carboxamide]
33 | 100 to 5000 nM | Nc1ncc(-c2ccccc2)nc1-c1nc2ccccc2[nH]1 [Compound I-110, 3-(1H-benzo[d]imidazol-2-yl)-5-phenylpyrazin-2-amine]
